Assays:
Mus musculus [1] = experiment: In vivo biodistribution in NMRI (Naval Medical Research Institute) mice brain at the dose of 0.15-0.2 nmol at 10 min; type: ADME, organism-based
Adenosine receptor A1 = target: T1, Adenosine receptor A1 (Homo sapiens, UniProt P30542); experiment: In vitro binding affinity for human Adenosine A1 receptor expressed in CHO-K1 cells; type: cell-based
T1 sequence (P30542 whole entry): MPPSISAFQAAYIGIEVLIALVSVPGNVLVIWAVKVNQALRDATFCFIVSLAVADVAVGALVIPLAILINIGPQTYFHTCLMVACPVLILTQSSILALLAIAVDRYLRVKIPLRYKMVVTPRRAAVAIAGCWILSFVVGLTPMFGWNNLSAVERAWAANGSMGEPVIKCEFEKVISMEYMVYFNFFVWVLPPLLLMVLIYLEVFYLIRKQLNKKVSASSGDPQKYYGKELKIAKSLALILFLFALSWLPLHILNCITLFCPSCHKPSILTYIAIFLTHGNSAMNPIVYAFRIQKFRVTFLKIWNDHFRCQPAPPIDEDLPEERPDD

Mus musculus [2] = experiment: In vivo biodistribution in NMRI (Naval Medical Research Institute) mice lung at the dose of 0.15-0.2 nmol at 2 min; type: ADME, organism-based
Mus musculus [3] = experiment: In vivo biodistribution in NMRI (Naval Medical Research Institute) mice blood at the dose of 0.15-0.2 nmol at 40 min; type: ADME, organism-based
Mus musculus [4] = experiment: In vivo biodistribution in NMRI (Naval Medical Research Institute) mice brain at the dose of 0.15-0.2 nmol at 40 min; type: ADME, organism-based
Mus musculus [5] = experiment: In vivo biodistribution in NMRI (Naval Medical Research Institute) mice bone at the dose of 0.15-0.2 nmol at 20 min; type: ADME, organism-based, Bone element
Mus musculus [6] = experiment: In vivo biodistribution in NMRI (Naval Medical Research Institute) mice spleen at the dose of 0.15-0.2 nmol at 20 min; type: ADME, organism-based
Mus musculus [7] = experiment: In vivo biodistribution in NMRI (Naval Medical Research Institute) mice spleen at the dose of 0.15-0.2 nmol at 40 min; type: ADME, organism-based
Mus musculus [8] = experiment: In vivo biodistribution in NMRI (Naval Medical Research Institute) mice blood at the dose of 0.15-0.2 nmol at 5 min; type: ADME, organism-based
Mus musculus [9] = experiment: In vivo biodistribution in NMRI (Naval Medical Research Institute) mice bone at the dose of 0.15-0.2 nmol at 10 min; type: ADME, organism-based, Bone element
Mus musculus [10] = experiment: In vivo biodistribution in NMRI (Naval Medical Research Institute) mice heart at the dose of 0.15-0.2 nmol at 60 min; type: ADME, organism-based; settings: 1 h
Mus musculus [11] = experiment: In vivo biodistribution in NMRI (Naval Medical Research Institute) mice heart at the dose of 0.15-0.2 nmol at 10 min; type: ADME, organism-based
Mus musculus [12] = experiment: In vivo biodistribution in NMRI (Naval Medical Research Institute) mice spleen at the dose of 0.15-0.2 nmol at 60 min; type: ADME, organism-based; settings: 1 h
Mus musculus [13] = experiment: In vivo biodistribution in NMRI (Naval Medical Research Institute) mice liver at the dose of 0.15-0.2 nmol at 40 min; type: ADME, organism-based
Mus musculus [14] = experiment: In vivo biodistribution in NMRI (Naval Medical Research Institute) mice intestine at the dose of 0.15-0.2 nmol at 20 min; type: ADME, organism-based
Mus musculus [15] = experiment: In vivo biodistribution in NMRI (Naval Medical Research Institute) mice kidney at the dose of 0.15-0.2 nmol at 40 min; type: ADME, organism-based
Mus musculus [16] = experiment: In vivo biodistribution in NMRI (Naval Medical Research Institute) mice intestine at the dose of 0.15-0.2 nmol at 10 min; type: ADME, organism-based
Mus musculus [17] = experiment: In vivo biodistribution in NMRI (Naval Medical Research Institute) mice lung at the dose of 0.15-0.2 nmol at 40 min; type: ADME, organism-based
Mus musculus [18] = experiment: In vivo biodistribution in NMRI (Naval Medical Research Institute) mice kidney at the dose of 0.15-0.2 nmol at 10 min; type: ADME, organism-based
Mus musculus [19] = experiment: In vivo biodistribution in NMRI (Naval Medical Research Institute) mice liver at the dose of 0.15-0.2 nmol at 10 min; type: ADME, organism-based
Mus musculus [20] = experiment: In vivo biodistribution in NMRI (Naval Medical Research Institute) mice heart at the dose of 0.15-0.2 nmol at 40 min; type: ADME, organism-based
Mus musculus [21] = experiment: In vivo biodistribution in NMRI (Naval Medical Research Institute) mice heart at the dose of 0.15-0.2 nmol at 20 min; type: ADME, organism-based
Mus musculus [22] = experiment: In vivo biodistribution in NMRI (Naval Medical Research Institute) mice brain at the dose of 0.15-0.2 nmol at 20 min; type: ADME, organism-based
Mus musculus [23] = experiment: In vivo biodistribution in NMRI (Naval Medical Research Institute) mice brain at the dose of 0.15-0.2 nmol at 60 min; type: ADME, organism-based; settings: 1 h
Mus musculus [24] = experiment: In vivo biodistribution in NMRI (Naval Medical Research Institute) mice lung at the dose of 0.15-0.2 nmol at 10 min; type: ADME, organism-based
Mus musculus [25] = experiment: In vivo biodistribution in NMRI (Naval Medical Research Institute) mice bone at the dose of 0.15-0.2 nmol at 60 min; type: ADME, organism-based, Bone element; settings: 1 h
Mus musculus [26] = experiment: In vivo biodistribution in NMRI (Naval Medical Research Institute) mice blood at the dose of 0.15-0.2 nmol at 20 min; type: ADME, organism-based
Mus musculus [27] = experiment: In vivo biodistribution in NMRI (Naval Medical Research Institute) mice blood at the dose of 0.15-0.2 n mol at 2 min; type: ADME, organism-based
Mus musculus [28] = experiment: In vivo biodistribution in NMRI (Naval Medical Research Institute) mice spleen at the dose of 0.15-0.2 nmol at 5 min; type: ADME, organism-based
Mus musculus [29] = experiment: In vivo biodistribution in NMRI (Naval Medical Research Institute) mice pancreas at the dose of 0.15-0.2 nmol at 2 min; type: ADME, organism-based
Mus musculus [30] = experiment: In vivo biodistribution in NMRI (Naval Medical Research Institute) mice splee nat the dose of 0.15-0.2 nmol at 10 min; type: ADME, organism-based
Mus musculus [31] = experiment: In vivo biodistribution in NMRI (Naval Medical Research Institute) mice liver at the dose of 0.15-0.2 nmol at 2 min; type: ADME, organism-based

ID/g (Mus musculus [1]): 2.44%
Kd (Adenosine receptor A1): 1.26 nM
ID/g (Mus musculus [2]): 5.35%
ID/g (Mus musculus [3]): 3.92%
ID/g (Mus musculus [4]): 2.52%
ID/g (Mus musculus [5]): 2.02%
ID/g (Mus musculus [6]): 1.78%
ID/g (Mus musculus [7]): 1.79%
ID/g (Mus musculus [8]): 6.53%
ID/g (Mus musculus [9]): 1.71%
ID/g (Mus musculus [10]): 1.63%
ID/g (Mus musculus [11]): 3.83%
ID/g (Mus musculus [12]): 0.84%
ID/g (Mus musculus [13]): 9.61%
ID/g (Mus musculus [14]): 3.51%
ID/g (Mus musculus [15]): 5.95%
ID/g (Mus musculus [16]): 3.08%
ID/g (Mus musculus [17]): 5.7%
ID/g (Mus musculus [18]): 6.1%
ID/g (Mus musculus [19]): 8.64%
ID/g (Mus musculus [20]): 4.23%
ID/g (Mus musculus [21]): 4.11%
ID/g (Mus musculus [22]): 2.39%
ID/g (Mus musculus [23]): 1.55%
ID/g (Mus musculus [24]): 5.79%
ID/g (Mus musculus [25]): 2.27%
ID/g (Mus musculus [26]): 4.13%
ID/g (Mus musculus [27]): 11.2%
ID/g (Mus musculus [28]): 1.56%
ID/g (Mus musculus [29]): 3.58%
ID/g (Mus musculus [30]): 1.77%
ID/g (Mus musculus [31]): 9.34%
Compound: CCCn1c(=O)c2nc(C3CCCC3)[nH]c2n(CCC[18F])c1=O

From ChEMBL document CHEMBL1135648, “Synthesis and evaluation of no-carrier-added 8-cyclopentyl-3-(3-[(18)F]fluoropropyl)-1-propylxanthine ([(18)F]CPFPX): a potent and selective A(1)-adenosine receptor antagonist for in vivo imaging” (J Med Chem, 2002)
